Literature values, collected in patent publication US9149490B2, “Acne treatment composition and methods for using” (Skinvisible Pharmaceuticals, Inc., priority 2006, dated 2015).

Conditions: in vivo

| Substance | dermal toxicity |
| --- | --- |
| Poly(vinylpyrrolidone/1-eicosene) [PVPE] | no demonstrable dermal toxicity |
| Poly(vinylpyrrolidone/1-hexadecene) [PVPH] | no demonstrable dermal toxicity |
